Laboratory results published in ChEMBL document CHEMBL5233281, “Design, synthesis and biological evaluation of novel 1,3,4,9-tetrahydropyrano[3,4-b]indoles as potential treatment of triple negative breast cancer by suppressing PI3K/AKT/mTOR pathway” (Bioorg Med Chem, 2021).

How the values were obtained:
MDA-MB-231 [1] = test: Antiproliferative activity against human MDA-MB-231 cells assessed as inhibition of cell growth incubated for 72 hrs by CCK8 assay; type: functional, cell-based; details: MDA-MB-231, 72 h
BGC-823 = test: Antiproliferative activity against human BGC-823 cells assessed as inhibition of cell growth incubated for 72 hrs by CCK8 assay; type: functional, cell-based; details: BGC-823, 72 h
A549 = test: Antiproliferative activity against human A549 cells assessed as inhibition of cell growth incubated for 72 hrs by CCK8 assay; type: functional, cell-based; details: A549, 72 h
MCF7 = test: Antiproliferative activity against human MCF7 cells assessed as inhibition of cell growth incubated for 72 hrs by CCK8 assay; type: functional, cell-based; details: MCF7, 72 h
PC-3 = test: Antiproliferative activity against human PC-3 cells assessed as inhibition of cell growth incubated for 72 hrs by CCK8 assay; type: functional, cell-based; details: PC-3, 72 h
MDA-MB-231 [2] = test: Antiproliferative activity against human MDA-MB-231 cells assessed as inhibition of cell growth incubated for 72 hrs by SRB assay; type: functional, cell-based; details: MDA-MB-231, 72 h
[3] = Selectivity index, ratio of IC50 for antiproliferative activity against human MCF-10A cells to IC50 for antiproliferative activity against human MDA-MB-231 cells; type: toxicity, cell-based; details: MCF-10A cells and MDA-MB-231 cells, read-out: Ratio IC50
[4] = Antiproliferative activity against human MCF-10A cells assessed as inhibition of cell growth incubated for 72 hrs by CCK8 assay; type: toxicity, cell-based

| SMILES | IC50 (MDA-MB-231 [1]) [µM] | IC50 (BGC-823) [µM] | IC50 (A549) [µM] | IC50 (MCF7) [µM] | IC50 (PC-3) [µM] | IC50 (MDA-MB-231 [2]) [µM] | selectivity ratio [3] | IC50 at 72 h [4] [µM] |
| --- | --- | --- | --- | --- | --- | --- | --- | --- |
| Cc1cccc(C2OCCc3c2[nH]c2ccccc32)c1 (stereo unspecified) | > 20 | > 20 | > 20 | > 20 | > 20 |  |  |  |
| CC(=O)Oc1ccc(C2OCCc3c2[nH]c2ccccc32)cc1 (stereo unspecified) | > 20 | > 20 | > 20 | 19.4 | > 20 |  |  |  |
| c1ccc(-c2ccc(C3OCCc4c3[nH]c3ccccc43)cc2)cc1 (stereo unspecified) | > 20 | > 20 | > 20 | > 20 | > 20 |  |  |  |
| C[C@@H](Nc1cc(F)cc(F)c1)c1cc(C(=O)N(C)C)cc2c(=O)cc(N3CCOCC3)oc12 [AZD-8186] |  |  |  |  |  | 6.99 |  |  |
| Cc1ccc(C2OCCc3c2[nH]c2ccccc32)cc1 (stereo unspecified) | > 20 | > 20 | > 20 | > 20 | 18.2 |  |  |  |
| COc1cccc(C2OCCc3c2[nH]c2ccccc32)c1 (stereo unspecified) | 15.3 | > 20 | > 20 | 18 | > 20 |  | 2.67 | 40.8 |
| COc1ccc2cc(C3OCCc4c3n(C)c3ccccc43)ccc2c1 (stereo unspecified) | 11.6 | 18.1 | 17.5 | 12.7 | 16.7 |  | 3.35 | 30 |
| COc1ccc(C2OCCc3c2[nH]c2ccccc32)cc1OC (stereo unspecified) | 17.8 | > 20 | > 20 | > 20 | 18.1 |  | 2.27 | 40.4 |
| COc1ccc(C2OCCc3c2[nH]c2ccc(OC)cc32)cc1 (stereo unspecified) | 16.9 | > 20 | > 20 | > 20 | > 20 |  | 3.07 | 51.9 |
| Clc1ccc(C2OCCc3c2[nH]c2ccccc32)cc1 (stereo unspecified) | 13.1 | 12.3 | 17.6 | 15.8 | 12.8 |  |  | 35.4 |
| COc1ccccc1C1OCCc2c1[nH]c1ccccc21 (stereo unspecified) | > 20 | > 20 | > 20 | > 20 | > 20 |  |  |  |
| COc1ccc(C2OCCc3c2[nH]c2ccc(Br)cc32)cc1 (stereo unspecified) | 16.5 | > 20 | > 20 | > 20 | > 20 |  | 2.42 | 45.1 |
| COc1cc(C2OCCc3c2[nH]c2ccccc32)cc(OC)c1OC (stereo unspecified) | 13.5 | 18.3 | 19 | 18.5 | 13.9 |  |  | 46.2 |
| c1ccc(C2OCCc3c2[nH]c2ccccc32)cc1 (stereo unspecified) | > 20 | > 20 | > 20 | > 20 | > 20 |  |  |  |
| COc1ccc(C2OCCc3c2[nH]c2ccccc32)c(OC)c1OC (stereo unspecified) | > 20 | > 20 | > 20 | > 20 | 19.7 |  |  |  |
| COc1ccc2cc(C3OCCc4c3n(Cc3ccccc3)c3ccccc43)ccc2c1 (stereo unspecified) | 15.8 | 19.7 | 19.9 | 16.5 | 14.8 |  | 2.63 | 41.4 |
| COc1ccc2cc(C3OCCc4c3[nH]c3ccccc43)ccc2c1 (stereo unspecified) | 4.59 | 13.2 | 15.4 | 12.2 | 12.6 |  | 4.77 | 21.9 |
| Fc1ccc(C2OCCc3c2[nH]c2ccccc32)cc1 (stereo unspecified) | 6.8 | 14.7 | 19.4 | 7.05 | 6.21 |  | 6.8 | 32 |
| COc1ccc(C2OCCc3c2[nH]c2ccccc32)cc1 (stereo unspecified) | 10.8 | 15.6 | 18.9 | 16.6 | 17.8 |  | 3.32 | 35.9 |
| c1ccc2cc(C3OCCc4c3[nH]c3ccccc43)ccc2c1 (stereo unspecified) | > 20 | 17.8 | > 20 | > 20 | > 20 |  |  |  |
